Laboratory results reported in PMC4183595, “Study on the Main Components Interaction from Flos Lonicerae and Fructus Forsythiae and Their Dissolution In Vitro and Intestinal Absorption in Rats” (PLoS ONE, 2014).
Like-named read-outs stand apart in the source and are kept apart here.

What was measured:
[1] = system: Caco-2 cells; assay: In vitro Caco-2 monolayer model, apical to basolateral transport (P app); assay type: in vitro ADME, human; details: for P app in product C group, % compared to that in product A group / P app in product C group, % compared with that in product B group: HBSS pH 6.0, apical to basolateral; for absorption into Caco-2 cells: dipsacoside B, macranthoidin B in product C or A group, arctiin in product C or B group
Description: Caco-2 cells were cultured in high glucose DMEM with 10% fetal bovine serum, 1% nonessential amino acids. Cells were cultured in a humidified atmosphere of 5% CO2 at 37°C. After reaching 80% confluens, Caco-2 cells were harvested with 0.05% trypsin-EDTA solution and seeded on top of CC inserts in 6-well plates, which has a surface area of 4.2 cm^2, at a density of 1.0×10^5 cells/cm^2. The protocols for cell culture in Transwell inserts were similar to those described previously.
Hank’s balanced salt solution (HBSS) was used as the transport buffer for the transport study in Caco-2 cells monolayer model. It was prepared by dissolving 9.5 grams of commercial available HBSS powder in 1000 mL water.
Cell culture experiments were described previously. Briefly, after culture medium was aspirated, the cell monolayers were washed three times with blank HBSS. […] The monolayers were incubated with the blank HBSS for 1 h with 37°C. Thereafter the incubation medium was aspirated. Afterwards, a solution containing the compound was loaded onto the apical side. The amounts of transported compound were measured as a function of time. […] The samples were taken at 0, 1, 2, 3 and 4 h after incubation. At the end of the transport experiment, integrity of the monolayer was monitored by TEER value.

[2] = Rat in vivo pharmacokinetics study after oral administration of product A, B or C; set-up: species or system Male Sprague-Dawley (SD) rats; AUC 0→t in product C group, increased to % compared to that in product A or B groups: concentration or dose not given beside the values; details: for AUC(0-t) / AUC(0-inf) / MRT / Tmax / half-life / Cmax: male, Sprague-Dawley, rat, plasma; for AUC(0-t) / AUC(0-inf) / MRT / Tmax / half-life: 10 mL·kg^−1; for AUC(0-t): oral product C group; for AUC(0-inf) / MRT / Tmax / half-life / Cmax: po, 10 mL·kg^−1, rats; for half-life: read-out: T 1/2z; for Cmax: mean±SD; for AUC 0→t in product C group, increased to % compared to that in product A or B groups: product C versus product A or B
Description: Product A (extract mixed with FLJ extract and water, (1∶1, v / v )), product B (extract mixed with FF extract and water, (1∶1, v / v )) and product C (extract mixed with FLJ and FF extracts, (1∶1, v / v )) were given to oral administration to rats, respectively.
Male SD rats (∼250 g) were kept in an environmentally controlled breeding room (temperature: 20±2°C, relative humidity: 60±5%) for 1 week. […] The rats were randomly divided into three groups with no less than six rats in each group to receive various administrations at a single oral dose (10 mL·kg^−1) by gastric gavage. […] Subsequently, plasma was prepared by centrifugation at 1,816×g, 4°C for 7 min, and immediately analyzed or stored at −70°C for further analysis.
The main pharmacokinetic parameters including the peak plasma concentration (C max), the time to C max (T max), the AUC from 0 to infinity (AUC 0–∞), the AUC form 0 to time (AUC 0–t), mean residence time (MRT), and terminal elimination half-life (T 1/2z) were calculated by the non-compartmental analysis of plasma concentration vs. time data using the “DAS 2.1.1” software (Mathematical Pharmacology Professional Committee of China, Shanghai, China).

[3] = single oral dose 10 mL·kg^−1 of product A (FLJ extract and water 1:1)
[4] = single oral dose 10 mL·kg^−1 of product C (FLJ and FF extracts 1:1)
[5] = single oral dose 10 mL·kg^−1 of product B (FF extract and water 1:1)

Row | SMILES | P app in product C group, % compared to that in product A group ([1]; Caco-2 monolayer) | AUC(0-t) ([2]; rats) | AUC(0-inf) ([2]; oral product A) | MRT ([2]; oral product A) | Tmax ([2]; oral product A) | half-life ([2]; oral product A) | AUC(0-inf) ([2]; oral product C) | MRT ([2]; oral product C) | Tmax ([2]; oral product C) | half-life ([2]; oral product C) | Cmax [2, 3] | Cmax [2, 4] | AUC 0→t in product C group, increased to % compared to that in product A or B groups ([2]; rats, oral) | MRT ([2]; oral product B) | Tmax ([2]; oral product B) | half-life ([2]; oral product B) | Cmax [2, 5] | also measured
1 | O=c1c(O[C@@H]2O[C@H](CO)[C@@H](O)[C@H](O)[C@H]2O)c(-c2ccc(O)cc2)oc2cc(O)cc(O)c12 [Astragalin] | 131% | 4.17 ng·h/mL | 4.32 ng·h/mL | 8.15 h | 0.167 h | 7.67 ± 0.263 h | 6.26 ng·h/mL | 11.3 h | 0.167 h | 11.6 ± 1.72 h | 0.441 ± 0.166 ng/mL | 0.551 ± 0.207 ng/mL | 145% |  |  |  |  | 
2 | COc1ccc(C[C@H]2COC(=O)[C@@H]2Cc2ccc(O[C@@H]3O[C@H](CO)[C@@H](O)[C@H](O)[C@H]3O)c(OC)c2)cc1OC [arctiin] |  |  |  |  |  |  |  |  |  |  |  |  |  |  |  |  |  | absorption into Caco-2 cells [1]: might not be absorbed well
3 | O=C(O)[C@]1(O)C[C@@H](O)[C@@H](O)[C@H](O)C1 [Quinic acid] | 301% |  |  | 3.98 h | 0.35 h | 3.82 ± 0.28 h |  | 7.35 h | 0.167 h | 5.5 ± 1.27 h |  |  |  | 4.5 h | 0.3 h | 4.1 ± 0.628 h | 358 ± 157 ng/mL | P app in product C group, % compared with that in product B group ([1]; Caco-2 monolayer): 24.0%; bioavailability in product C group compared with that in product A group ([2]; rats, oral): no significant difference; bioavailability in product C group compared with that in product B group ([2]; rats, oral): higher significantly
4 | COC(=O)C1=CO[C@@H](O[C@@H]2O[C@H](CO)[C@@H](O)[C@H](O)[C@H]2O)[C@@H]2[C@@H](C)[C@@H](O)C[C@H]12 [Loganin] | 211% | 108 ng·h/mL | 92.9 ng·h/mL | 5.82 h | 0.35 h | 2.07 ± 0.205 h | 140 ng·h/mL | 7.83 h | 0.267 h | 7.33 ± 0.273 h | 28 ± 4.93 ng/mL | 54.7 ± 8.63 ng/mL | 121% |  |  |  |  | 
5 | O=c1c(-c2ccc(O)cc2)coc2cc(O)cc(O)c12 [Genistein] | 293% |  | 240 ng·h/mL | 10.8 h | 0.233 h | 10 ± 1.27 h | 28.6 ng·h/mL | 7.72 h | 0.25 h | 6.85 ± 1.13 h | 5.09 ± 2.46 ng/mL | 2.3 ± 1 ng/mL |  |  |  |  |  | AUC 0→t in product C group compared with product A or B group ([2]; rats, oral, same dosages administrated): lower significantly
6 | COc1cc(C2OCC3C(c4ccc(O[C@@H]5O[C@H](CO)[C@@H](O)[C@H](O)[C@H]5O)c(OC)c4)OCC23)ccc1O (stereo partly drawn) [Pinoresinol-β-D-glucoside] |  | 17.1 ng·h/mL |  |  |  |  | 67.8 ng·h/mL | 7.57 h | 0.167 h | 5.25 ± 0.472 h |  | 32.3 ± 7.57 ng/mL | 299% | 4.1 h | 0.167 h | 3.37 ± 0.21 h | 11.9 ± 4.36 ng/mL | P app, product C group versus product B group ([1]; Caco-2 monolayer): no significant difference; AUC(0-inf) ([2]; oral product B): 32 ng·h/mL
7 | O=c1c(O)c(-c2ccc(O)c(O)c2)oc2cc(O)cc(O)c12 [Quercetin] | 125% |  | 144 ng·h/mL | 8.22 h | 0.167 h | 4.62 ± 0.877 h | 52.4 ng·h/mL | 7.12 h | 0.167 h | 4.67 ± 1.05 h | 15.6 ± 4.39 ng/mL | 8.02 ± 0.493 ng/mL |  | 7 h | 0.167 h | 5.27 ± 0.93 h | 12.6 ± 2.23 ng/mL | P app in product C group, % compared with that in product B group ([1]; Caco-2 monolayer): 256%; AUC(0-inf) ([2]; oral product B): 65 ng·h/mL; bioavailability in product C group compared with that in product A group ([2]; rats, oral): opposite; bioavailability in product C group compared with that in product B group ([2]; rats, oral): opposite
8 | C[C@@H]1O[C@@H](O[C@H]2[C@H](O[C@H]3CC[C@@]4(C)[C@@H](CC[C@]5(C)[C@@H]4CC=C4[C@@H]6CC(C)(C)CC[C@]6(C(=O)O[C@@H]6O[C@H](CO[C@@H]7O[C@H](CO)[C@@H](O)[C@H](O)[C@H]7O)[C@@H](O)[C@H](O)[C@H]6O)CC[C@]45C)[C@]3(C)CO)OC[C@H](O)[C@@H]2O)[C@H](O)[C@H](O)[C@H]1O [dipsacoside B] |  |  |  |  |  |  |  |  |  |  |  |  |  |  |  |  |  | absorption into Caco-2 cells [1]: might not be absorbed well
